pIC50: −log10 of the molar value.
Columns and labels:
[1] = target: DYRK1A (Homo sapiens (Human), UniProt Q13627); test: IC50 determination, methodology similar to Example A (Example B); assay type: biochemical; settings: against DYRK1A; Table 8
Excerpt: This method is sensitive, accurate and provides a direct measure of activity.

[2] = test system: tau/MAPT phosphorylation in TS21 neurons; test: Tau/MAPT phosphorylation in TS21 neuronal cultures, Western blotting; assay type: cell-based, human; settings: treated for 10 days
Procedure: (§1) Overexpression of DYRK1A in DS is thought to account for increased tau phosphorylation by GSK3β and the increase in DYRK1A positive neurofibrillary tangles (NFTs) in the brains of people with DS and AD. Therefore therapeutic inhibition of DYRK1A activity in DS and AD may delay the progression of neurodegeneration in DS and AD. The following experiment on reduction of tau phosphorylation by inhibition of DYRK1A by inhibitor 4-93 was performed as described in the literature (Shi, Y. et al. A human stem cell model of early Alzheimer's disease pathology in Down syndrome. Sci. Transl. Med. 4, 124ra29 (2012)).
(§2) Neuronal cultures at day 40 were treated with DYRK1A inhibitors and control compounds for 10 days. Total protein was extracted and total tau and phosphorylated tau/MAPT was quantified by Western blotting using antibodies to total tau and a number of phospho-tau epitopes.

[3] = test system: tau/MAPT phosphorylation in control neurons; test: Tau/MAPT phosphorylation in control neurons, Western blotting; assay type: cell-based, human; settings: treated for 10 days, compared to DMSO treated controls
Procedure: as §1, §2

[4] = TS21 neurons, normalised to β-actin, vs DMSO treated controls

Row | Compound | pIC50 [1] | total tau protein levels ([2]; TS21 neuronal cultures) | tau phosphorylation at Ser 396 [2, 4] | tau phosphorylation at Ser 404 [2, 4] | tau/MAPT phosphorylation at Ser 396 [3] | tau/MAPT phosphorylation at Ser 404 [3]
1 | COc1ccc(Nc2ccncc2-c2nc3cc(OC)ccc3s2)c(F)c1 [PST-131] | 6.45 |  |  |  |  | 
2 | C[C@H](NC(=O)Cc1cc(F)cc(F)c1)C(=O)N[C@H](C(=O)OC(C)(C)C)c1ccccc1 [DAPT, reference compound] |  | increased | increased | increased | increased | increased
